Measurements reported in ChEMBL document CHEMBL1132717, “Development of fluorine-18-labeled 5-HT1A antagonists” (J Med Chem, 1999).
pKi: −log10 of the molar value.

Experiments:
[1] = species on record: Rattus norvegicus; assay: Biodistribution of the [18F]-radiolabeled compound in rat hypothalamus; type: ADME, organism-based; settings: in vivo
[2] = species on record: Rattus norvegicus; assay: Biodistribution of the [18F]-radiolabeled compound in rat cerebellum; type: ADME, organism-based; settings: in vivo
[3] = species on record: Rattus norvegicus; assay: Biodistribution of the [18F]-radiolabeled compound in rat cortex; type: ADME, organism-based; settings: in vivo
[4] = species on record: Rattus norvegicus; assay: Biodistribution of the [18F]-radiolabeled compound in rat hippocampus; type: ADME, organism-based; settings: in vivo
[5] = target: T1, 5-hydroxytryptamine receptor 1A (Homo sapiens, UniProt P08908); assay: In vitro inhibition of [3H]- 8-OH-DPAT binding to cloned cell line containing human 5-hydroxytryptamine 1A receptor by Panlabs assay
T1 sequence (P08908 whole entry): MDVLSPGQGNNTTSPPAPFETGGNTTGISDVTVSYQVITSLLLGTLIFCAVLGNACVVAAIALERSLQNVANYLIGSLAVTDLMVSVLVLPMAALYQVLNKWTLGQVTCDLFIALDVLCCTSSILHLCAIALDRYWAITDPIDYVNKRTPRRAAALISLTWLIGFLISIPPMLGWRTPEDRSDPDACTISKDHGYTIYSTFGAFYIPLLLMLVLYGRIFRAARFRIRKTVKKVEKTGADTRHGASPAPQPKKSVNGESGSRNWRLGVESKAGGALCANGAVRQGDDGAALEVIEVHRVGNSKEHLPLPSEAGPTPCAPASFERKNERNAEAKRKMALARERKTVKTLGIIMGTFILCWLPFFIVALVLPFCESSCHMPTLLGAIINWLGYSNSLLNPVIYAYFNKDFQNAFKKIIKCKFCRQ

[6] = target: T1, 5-hydroxytryptamine receptor 1A; assay: In vitro inhibition of [3H]- 8-OH-DPAT binding to cloned cell line containing human 5-hydroxytryptamine 1A receptor
[7] = target: T1, 5-hydroxytryptamine receptor 1A; assay: In vitro inhibition of [3H]- 8-OH-DPAT binding to cloned cell line containing human 5-hydroxytryptamine 1A receptor (Experiment 1)
[8] = target: T1, 5-hydroxytryptamine receptor 1A; assay: In vitro inhibition of [3H]- 8-OH-DPAT binding to cloned cell line containing human 5-hydroxytryptamine 1A receptor (Experiment 2)

SMILES	ID/g [1] [%]	ID/g [2] [%]	ID/g [3] [%]	ID/g [4] [%]	pKi [5]	pKi [6]	pKi [7]	pKi [8]
COc1ccccc1N1CCN(CCN(C(=O)c2ccc(F)cc2)c2ccccn2)CC1	0.066	0.034	0.085	0.195	–	–	–	–
COc1ccccc1N1CCN(CCN(C(=O)C2CCC(F)CC2)c2ccccn2)CC1 (stereo unspecified)	0.499	0.064	0.823	1.298	9.61	9.29	–	–
COc1ccccc1N1CCN(CCN(C(=O)c2ccc(F)c(C)c2)c2ccccn2)CC1	–	0.02	0.047	0.118	9.10	–	8.40	8.94
